Laboratory results from US20250339399A1, “SUPRAMOLECULAR SELF-ASSEMBLY SYSTEM” (Beijing Creatron Institute of Pharmaceutical Research Co., …, priority 2022, published 2025).

Columns and labels:
[1] = Guest molecule concentration after incubation in initial medium without polymer (Comparative Example 1); assay type: physicochemical; settings: 37° C.
Method: pH 2.0 hydrochloric acid, pH 4.5 acetate, and pH 6.5, pH 6.8, or pH 7.4 phosphate buffer solutions were prepared. The selection of each initial medium followed the principle that the solubility in the initial medium of the selected targets (or active ingredients) should low enough, but should meet the detection sensitivity and accuracy requirements of the corresponding analytical methods. Each buffer as initial media was placed in a 50 ml test tube with a stopper, shaken in a constant temperature air shaker at 37° C.±0.5° C., with an amplitude of 200 rpm, and incubated for 1 hour. […] Samples were taken at 0.5 h, 3 h and 6 h after incubation, centrifuged at 37° C., 13000 rpm for 5 minutes, and the supernatant was diluted at least 10 times with the mobile phase under the target analyte analytical method, filtered, the initial filtrate was discarded, and the continued filtrate was used as the test solution for injection analysis. The corresponding HPLC method under each target object item in Table 8 was used to determine the content of each target substance. When the solubility of the target in the initial medium is below the quantitative limit of the analytical method, a small amount of surfactant, such as sodium dodecyl sulfate (SDS), Tween20, or Tween80, can be added appropriately.
The above targets were incubated at 37° C.±0.5° C. for different time in an initial medium without any polymer. Each solid target formed by molecular stacking was removed by centrifugation, and the supernatant was analyzed using the HPLC method under each target item (see Table 8). The theoretical addition concentration of each target when its supramolecular self-assembly system was built was determined by its maximum dose in clinical use.

[2] = Binary supramolecular self-assembly systems of polymer and target: guest concentration over incubation time (Comparative Example 2); assay type: physicochemical
Method: Experiments were conducted according to the steps in Comparative Example 1, and quantitative analysis was carried out using the analytical method for each target to investigate the regulation ability […] stacking.

[3] = cited from earlier work
[4] = binary system with 0.5% polymer 101, incubation 0.5 h
[5] = binary system with 0.5% polymer 101, incubation 3 h
[6] = binary system with 0.5% polymer 101, incubation 6 h
[7] = binary system with 0.5% polymer 102, incubation 0.5 h
[8] = binary system with 0.5% polymer 102, incubation 3 h
[9] = binary system with 0.5% polymer 102, incubation 6 h
[10] = binary system with 0.5% polymer 103, incubation 0.5 h
[11] = binary system with 0.5% polymer 103, incubation 3 h
[12] = binary system with 0.5% polymer 103, incubation 6 h
[13] = binary system with 0.5% polymer 106, incubation 0.5 h
[14] = binary system with 0.5% polymer 106, incubation 3 h
[15] = binary system with 0.5% polymer 106, incubation 6 h
[16] = binary system with 0.5% polymer 107, incubation 0.5 h
[17] = binary system with 0.5% polymer 107, incubation 3 h
[18] = binary system with 0.5% polymer 107, incubation 6 h
[19] = binary system with 0.5% polymer 110, incubation 0.5 h
[20] = binary system with 0.5% polymer 110, incubation 3 h
[21] = binary system with 0.5% polymer 110, incubation 6 h
[22] = binary system with 0.5% polymer 104, incubation 0.5 h
[23] = binary system with 0.5% polymer 104, incubation 3 h
[24] = binary system with 0.5% polymer 104, incubation 6 h

Compound	Concentration of the target in the solution measured after different incubation time [2, 4] [µg/mL]	Concentration of the target in the solution measured after different incubation time [2, 5] [µg/mL]	Concentration of the target in the solution measured after different incubation time [2, 6] [µg/mL]	Concentration of the target in the solution measured after different incubation time [2, 7] [µg/mL]	Concentration of the target in the solution measured after different incubation time [2, 8] [µg/mL]	Concentration of the target in the solution measured after different incubation time [2, 9] [µg/mL]	Concentration of the target in the solution measured after different incubation time [2, 10] [µg/mL]	Concentration of the target in the solution measured after different incubation time [2, 11] [µg/mL]	Concentration of the target in the solution measured after different incubation time [2, 12] [µg/mL]	Concentration of the target in the solution measured after different incubation time [2, 13] [µg/mL]	Concentration of the target in the solution measured after different incubation time [2, 14] [µg/mL]	Concentration of the target in the solution measured after different incubation time [2, 15] [µg/mL]	Concentration of the target in the solution measured after different incubation time [2, 16] [µg/mL]	Concentration of the target in the solution measured after different incubation time [2, 17] [µg/mL]	Concentration of the target in the solution measured after different incubation time [2, 18] [µg/mL]	Concentration of the target in the solution measured after different incubation time [2, 19] [µg/mL]	Concentration of the target in the solution measured after different incubation time [2, 20] [µg/mL]	Concentration of the target in the solution measured after different incubation time [2, 21] [µg/mL]	LogD7.4 or Log P [3]	Concentration of the target in the solution measured after different incubation time [2, 22] [µg/mL]	other results
COC1=CC(=O)C[C@@H](C)[C@]12Oc1c(Cl)c(OC)cc(OC)c1C2=O [Griseofulvin, griseofulvin]	221.0	187.9	171.7	24.1	23.2	28.6	51.8	39.8	39.1	67.9	62.8	60.7	109.2	93.9	88.6	27.1	23.6	26.3	2.17	–	Concentration of guest molecule measured after different incubated time ([1]; 0.5 h, 0.1% SDS in pH 6.8 phosphate buffer): 35.6 µg/mL; Concentration of guest molecule measured after different incubated time ([1]; 3 h, 0.1% SDS in pH 6.8 phosphate buffer): 27.4 µg/mL; Concentration of guest molecule measured after different incubated time ([1]; 6 h, 0.1% SDS in pH 6.8 phosphate buffer): 24.1 µg/mL
CCC(C)n1ncn(-c2ccc(N3CCN(c4ccc(OCC5COC(Cn6cncn6)(c6ccc(Cl)cc6Cl)O5)cc4)CC3)cc2)c1=O (stereo not shown) [Itraconazole, itraconazole]	47.9	4.8	3.0	69.7	34.5	24.7	14.1	8.6	1.9	43.3	8.3	6.4	13.5	1.7	1.2	–	–	–	7.31	31.5	Concentration of guest molecule measured after different incubated time ([1]; 0.5 h, 0.05% SDS in pH 6.8 phosphate buffer): 10.7 µg/mL; Concentration of guest molecule measured after different incubated time ([1]; 3 h, 0.05% SDS in pH 6.8 phosphate buffer): 2.9 µg/mL; Concentration of guest molecule measured after different incubated time ([1]; 6 h, 0.05% SDS in pH 6.8 phosphate buffer): 2.7 µg/mL; Concentration of the target in the solution measured after different incubation time [2, 23]: 7.1 µg/mL; Concentration of the target in the solution measured after different incubation time [2, 24]: 3.1 µg/mL
O=C(O)[C@H]1O[C@@H](Oc2cc3oc(-c4ccc(O)cc4)cc(=O)c3c(O)c2O)[C@H](O)[C@@H](O)[C@@H]1O [Scutellarin, scutellarin]	210.4	125.2	110.2	122.5	102.0	102.2	40.4	42.8	42.8	57.4	60.8	54.3	61.7	41.7	43.1	95.9	87.3	78.3	0.80	–	Concentration of guest molecule measured after different incubated time ([1]; 0.5 h, pH 6.8 phosphate buffer): 45.3 µg/mL; Concentration of guest molecule measured after different incubated time ([1]; 3 h, pH 6.8 phosphate buffer): 41.7 µg/mL; Concentration of guest molecule measured after different incubated time ([1]; 6 h, pH 6.8 phosphate buffer): 43.1 µg/mL
CC(C)OC(=O)CCC/C=C\C[C@@H]1[C@@H](/C=C/C(F)(F)COc2ccccc2)[C@H](O)C[C@@H]1O [Tafluprost, tafluprost]	57.6	44.8	23.1	52.9	66.1	67.3	14.6	23.1	27.4	–	–	–	34.5	36.8	35.2	–	–	–	4.25	26.7	Concentration of guest molecule measured after different incubated time ([1]; 0.5 h, pH 7.4 phosphate buffer): 18.6 µg/mL; Concentration of guest molecule measured after different incubated time ([1]; 3 h, pH 7.4 phosphate buffer): 9.3 µg/mL; Concentration of guest molecule measured after different incubated time ([1]; 6 h, pH 7.4 phosphate buffer): 6.8 µg/mL; Concentration of the target in the solution measured after different incubation time [2, 23]: 24.2 µg/mL; Concentration of the target in the solution measured after different incubation time [2, 24]: 17.3 µg/mL; Concentration of guest molecule in solution ([2]; binary: 0.25% 102H, 6 h): 67.3 µg/mL; Log P ([3]; prost derivatives, Table 31 (relevant information)): Log P:4.29 D-H: 2 R-H:4
CC1(C)CCC(CN2CCN(c3ccc(C(=O)NS(=O)(=O)c4ccc(NCC5CCOCC5)c([N+](=O)[O-])c4)c(Oc4cnc5[nH]ccc5c4)c3)CC2)=C(c2ccc(Cl)cc2)C1 [Venetoclax, venetoclax]	233.6	249.5	252.6	151.6	254.9	272.1	78.6	72.9	59.5	232.2	250.5	156.8	152.2	153.1	156.8	385.5	534.6	566.2	6.88	–	Concentration of guest molecule measured after different incubated time ([1]; 0.5 h, pH 6.8 phosphate buffer): 19.8 µg/mL; Concentration of guest molecule measured after different incubated time ([1]; 3 h, pH 6.8 phosphate buffer): 12.4 µg/mL; Concentration of guest molecule measured after different incubated time ([1]; 6 h, pH 6.8 phosphate buffer): 9.6 µg/mL
